Test results from the NIST ThermoML archive (doi:10.1021/acs.jced.9b00327).
± gives the expanded uncertainty stated by the source.

Test: mn = molality of the nth substance listed, in mol/kg
Conditions: 100 kPa, Liquid; for speed of sound: Single path-length method; for mass density: Vibrating tube method

`NCCCC(=O)O` [4-aminobutanoic acid] + O showed a speed of sound (293.15 K, m1 = 0.09972) of 1491.4 ± 4.3 m/s, a speed of sound (293.15 K, m1 = 0.1479) of 1495.4 ± 4.3 m/s and a speed of sound (293.15 K, m1 = 0.1942) of 1499.3 ± 4.3 m/s. The speed of sound (293.15 K, m1 = 0.2449) was 1503.5 ± 4.3 m/s, the speed of sound (293.15 K, m1 = 0.2937) was 1507.6 ± 4.3 m/s and the speed of sound (293.15 K, m1 = 0.3452) was 1511.8 ± 4.3 m/s. For the same compound, the speed of sound (293.15 K, m1 = 0.3928) was 1515.7 ± 4.3 m/s, the mass density (293.15 K, m1 = 0.09972) was 1000.99 ± 1.1 kg/m3 and the mass density (293.15 K, m1 = 0.1479) was 1002.31 ± 1.1 kg/m3. The mass density (293.15 K, m1 = 0.1942) was 1003.57 ± 1.1 kg/m3, the mass density (293.15 K, m1 = 0.2449) was 1004.94 ± 1.1 kg/m3 and the mass density (293.15 K, m1 = 0.2937) was 1006.23 ± 1.1 kg/m3. For the same compound, the mass density (293.15 K, m1 = 0.3452) was 1007.58 ± 1.1 kg/m3, the mass density (293.15 K, m1 = 0.3928) was 1008.82 ± 1.1 kg/m3 and the speed of sound (298.15 K, m1 = 0.09972) was 1505 ± 4.4 m/s. It also gave a speed of sound (298.15 K, m1 = 0.1479) of 1508.9 ± 4.3 m/s, a speed of sound (298.15 K, m1 = 0.1942) of 1512.7 ± 4.3 m/s and a speed of sound (298.15 K, m1 = 0.2449) of 1516.8 ± 4.3 m/s. For the same compound, the speed of sound (298.15 K, m1 = 0.2937) was 1520.7 ± 4.3 m/s, the speed of sound (298.15 K, m1 = 0.3452) was 1524.8 ± 4.3 m/s and the speed of sound (298.15 K, m1 = 0.3928) was 1528.7 ± 4.2 m/s. It also gave a mass density (298.15 K, m1 = 0.09972) of 999.771 ± 1.1 kg/m3, a mass density (298.15 K, m1 = 0.1479) of 1001.05 ± 1.1 kg/m3 and a mass density (298.15 K, m1 = 0.1942) of 1002.26 ± 1.1 kg/m3. It also gave a mass density (298.15 K, m1 = 0.2449) of 1003.56 ± 1.1 kg/m3, a mass density (298.15 K, m1 = 0.2937) of 1004.78 ± 1.1 kg/m3 and a mass density (298.15 K, m1 = 0.3452) of 1006.04 ± 1.1 kg/m3. It also gave a mass density (298.15 K, m1 = 0.3928) of 1007.19 ± 1.1 kg/m3, a speed of sound (303.15 K, m1 = 0.09972) of 1517 ± 4.4 m/s and a speed of sound (303.15 K, m1 = 0.1479) of 1520.8 ± 4.3 m/s. The speed of sound (303.15 K, m1 = 0.1942) was 1524.4 ± 4.3 m/s, the speed of sound (303.15 K, m1 = 0.2449) was 1528.4 ± 4.3 m/s and the speed of sound (303.15 K, m1 = 0.2937) was 1532.2 ± 4.3 m/s. The speed of sound (303.15 K, m1 = 0.3452) was 1536.2 ± 4.3 m/s, the speed of sound (303.15 K, m1 = 0.3928) was 1539.9 ± 4.2 m/s and the mass density (303.15 K, m1 = 0.09972) was 998.354 ± 1.1 kg/m3. For the same compound, the mass density (303.15 K, m1 = 0.1479) was 999.634 ± 1.1 kg/m3, the mass density (303.15 K, m1 = 0.1942) was 1000.85 ± 1.1 kg/m3 and the mass density (303.15 K, m1 = 0.2449) was 1002.16 ± 1.1 kg/m3. It also gave a mass density (303.15 K, m1 = 0.2937) of 1003.41 ± 1.1 kg/m3, a mass density (303.15 K, m1 = 0.3452) of 1004.71 ± 1.1 kg/m3 and a mass density (303.15 K, m1 = 0.3928) of 1005.89 ± 1.1 kg/m3. The speed of sound (308.15 K, m1 = 0.09972) was 1527.4 ± 4.4 m/s, the speed of sound (308.15 K, m1 = 0.1479) was 1531.1 ± 4.3 m/s and the speed of sound (308.15 K, m1 = 0.1942) was 1534.6 ± 4.3 m/s. The speed of sound (308.15 K, m1 = 0.2449) was 1538.5 ± 4.3 m/s, the speed of sound (308.15 K, m1 = 0.2937) was 1542.1 ± 4.3 m/s and the speed of sound (308.15 K, m1 = 0.3452) was 1546 ± 4.3 m/s. For the same compound, the speed of sound (308.15 K, m1 = 0.3928) was 1549.6 ± 4.2 m/s, the mass density (308.15 K, m1 = 0.09972) was 996.682 ± 1.1 kg/m3 and the mass density (308.15 K, m1 = 0.1479) was 997.926 ± 1.1 kg/m3. For the same compound, the mass density (308.15 K, m1 = 0.1942) was 999.104 ± 1.1 kg/m3, the mass density (308.15 K, m1 = 0.2449) was 1000.37 ± 1.1 kg/m3 and the mass density (308.15 K, m1 = 0.2937) was 1001.56 ± 1.1 kg/m3. The mass density (308.15 K, m1 = 0.3452) was 1002.8 ± 1.1 kg/m3, the mass density (308.15 K, m1 = 0.3928) was 1003.92 ± 1.1 kg/m3 and the speed of sound (313.15 K, m1 = 0.09972) was 1536.3 ± 4.3 m/s. The speed of sound (313.15 K, m1 = 0.1479) was 1539.8 ± 4.3 m/s, the speed of sound (313.15 K, m1 = 0.1942) was 1543.2 ± 4.3 m/s and the speed of sound (313.15 K, m1 = 0.2449) was 1547 ± 4.3 m/s. The speed of sound (313.15 K, m1 = 0.2937) was 1550.5 ± 4.3 m/s, the speed of sound (313.15 K, m1 = 0.3452) was 1554.3 ± 4.3 m/s and the speed of sound (313.15 K, m1 = 0.3928) was 1557.8 ± 4.2 m/s. For the same compound, the mass density (313.15 K, m1 = 0.09972) was 994.848 ± 1.1 kg/m3, the mass density (313.15 K, m1 = 0.1479) was 996.089 ± 1.1 kg/m3 and the mass density (313.15 K, m1 = 0.1942) was 997.262 ± 1.1 kg/m3. The mass density (313.15 K, m1 = 0.2449) was 998.525 ± 1.1 kg/m3, the mass density (313.15 K, m1 = 0.2937) was 999.722 ± 1.1 kg/m3 and the mass density (313.15 K, m1 = 0.3452) was 1000.96 ± 1.1 kg/m3. It also gave a mass density (313.15 K, m1 = 0.3928) of 1002.08 ± 1.1 kg/m3, a speed of sound (318.15 K, m1 = 0.09972) of 1543.7 ± 4.2 m/s and a speed of sound (318.15 K, m1 = 0.1479) of 1547.1 ± 4.2 m/s. For the same compound, the speed of sound (318.15 K, m1 = 0.1942) was 1550.4 ± 4.2 m/s, the speed of sound (318.15 K, m1 = 0.2449) was 1554 ± 4.2 m/s and the speed of sound (318.15 K, m1 = 0.2937) was 1557.5 ± 4.2 m/s. For the same compound, the speed of sound (318.15 K, m1 = 0.3452) was 1561.1 ± 4.2 m/s, the speed of sound (318.15 K, m1 = 0.3928) was 1564.5 ± 4.2 m/s and the mass density (318.15 K, m1 = 0.09972) was 992.851 ± 1.1 kg/m3. It also gave a mass density (318.15 K, m1 = 0.1479) of 994.097 ± 1.1 kg/m3, a mass density (318.15 K, m1 = 0.1942) of 995.285 ± 1.1 kg/m3 and a mass density (318.15 K, m1 = 0.2449) of 996.567 ± 1.1 kg/m3. The mass density (318.15 K, m1 = 0.2937) was 997.781 ± 1.1 kg/m3, the mass density (318.15 K, m1 = 0.3452) was 999.045 ± 1.1 kg/m3 and the mass density (318.15 K, m1 = 0.3928) was 1000.2 ± 1.1 kg/m3.
